Test results reported in patent US20050202522A1, “Method of screening for antimicrobial agents” (NATIONAL INSTITUTE OF ADVANCED INDUSTRIAL SCIENCE AND …, priority 2003, published 2005).

How the values were obtained:
FFRP pot1216151 = experiment: Gel filtration analysis of changes in assemblies of the FFRP induced by amino acids and metabolic intermediates; type: binding, Pyrococcus sp. OT3; conditions: for gel filtration peak that increased: FFRP monomer approximately 100 μM, at least 30 minutes at room temperature, UV 220 nm; for concluded effect on assembling of the protein: gel filtration
Method: Changes in assemblies of the FFRP pot1216151 induced by interaction with amino acids and metabolic intermediates were analyzed in solution using gel filtration.
Gel filtration was carried out at a flow rate 1 ml/min, using a matrix (Protein Pak 125, 7.8×300 mm, Waters) and a 50 mM Tris-HCl buffer (pH 7.0) containing 300 mM sodium chloride. Flow of the protein was monitored by measuring the UV absorbance at 220 nm (LC Module I plus system, Waters). The FFRP pot1216151 purified by method 2, i.e., the rigorous method, was dissolved in 50 mM Tris-HCl buffer (pH 7.0) containing 200 mM sodium chloride, and kept at −80° C. until it was diluted by 10-fold with a 50 mM Tris-HCl buffer (pH 7.0) containing 300 mM sodium chloride, and mixed with each potential ligand for at least 30 minutes at room temperature (about 25° C.). In the mixture, the monomer concentration of the FFRP was approximately 100 μM.

FFRP (pot1216151) = experiment: Changes in crystal structure (depolarization) of FFRP crystals soaked in amino acid solutions; type: binding, Pyrococcus sp. OT3; conditions: crystals soaked in solution of one amino acid, 10 mM
Method: It has been known that the regularity inside a crystal might be affected, if the structure of the protein changes upon interaction with a ligand which is incorporated from outside the crystal, thereby depolarizing the crystal. Crystals of the FFRP (pot1216151) were soaked into solutions, each containing one of twenty amino acids at the same concentration 10 mM. […] With the other amino acids, no change was observed.

E. coli Lrp = E. coli Lrp (Escherichia coli, UniProt P0ACJ0); conditions: Marasco et al., 1994; cited from earlier work
Chain of E. coli Lrp (P0ACJ0 2-164): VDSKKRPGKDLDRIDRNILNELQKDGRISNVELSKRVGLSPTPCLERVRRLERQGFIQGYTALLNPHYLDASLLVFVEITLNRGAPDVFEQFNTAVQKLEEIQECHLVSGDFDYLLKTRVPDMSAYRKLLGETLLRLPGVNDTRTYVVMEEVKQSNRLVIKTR

Structure (SMILES)	gel filtration peak that increased (FFRP pot1216151; metabolic intermediate 10 mM)	gel filtration peak that increased (FFRP pot1216151; amino acid 1 mM)	concluded effect on assembling of the protein (FFRP pot1216151; amino acid 1 mM)	change of the FFRP crystal (depolarization) on soaking (FFRP (pot1216151))	effect of leucine on the FFRP assembly (E. coli Lrp)	concluded effect on assembling of the protein (FFRP pot1216151; metabolic intermediate 10 mM)
O=C(O)C(O)COP(=O)(O)O (stereo not drawn) [3-phosphoglyceric acid]	no significant effect	–	–	–	–	–
C[C@H](N)C(=O)O [alanine]	–	the fourth peak increased	accelerate disassembling of the protein	–	–	–
N=C(N)NCCC[C@H](N)C(=O)O [arginine]	–	the fourth peak increased	accelerate disassembling of the protein	–	–	–
CC[C@H](C)[C@H](N)C(=O)O [isoleucine]	–	the second peak increased	accelerates assembling of the protein	the crystals depolarized after several hours	–	–
CC(C)C[C@H](N)C(=O)O [leucine]	–	the fourth peak increased	accelerate disassembling of the protein	the crystals depolarized after several hours	disassembling these FFRPs	–
O=C(O)CC(O)C(=O)O (stereo not drawn) [malic acid]	the third peak increased	–	–	–	–	stabilizing intermediate assemblies
CSCC[C@H](N)C(=O)O [methionine]	–	the fourth peak increased	accelerate disassembling of the protein	the crystals depolarized after several hours	–	–
O=C(O)CC(=O)C(=O)O [oxaloacetic acid]	the third peak increased	–	–	–	–	stabilizing intermediate assemblies
N[C@@H](Cc1ccccc1)C(=O)O [phenylalanine]	–	the fourth peak increased	accelerate disassembling of the protein	–	–	–
CC(=O)C(=O)O [pyruvic acid]	no significant effect	–	–	–	–	–
C[C@@H](O)[C@H](N)C(=O)O [threonine]	–	the fourth peak increased	accelerate disassembling of the protein	–	–	–
CC(C)[C@H](N)C(=O)O [valine]	–	the third peak increased	stabilizing intermediate assemblies	the crystals depolarized after several hours	–	–
